Experimental data as given in patent publication US10563263B2, “Genetic polymorphisms associated with statin response and cardiovascular diseases, methods of detection and uses thereof” (CELERA CORPORATION, priority 2010, dated 2020).

Test system: CHD
Assay: Meta-analysis of CARE and WOSCOPS combined, synergy index, CHD endpoint
Assay type: in vivo, human
Source text: Tables 4-5 provide meta-analyses of CARE and WOSCOPS combined (2nd section of each table) for two endpoints (CHD and CVD) and three genetic models (dominant, recessive, and additive), as well as logistic regression analyses of CARE (3rd section of each table) and WOSCOPS (4th section of each table) individually.
Tables 12 and 17 provide results of meta-analysis of the CARE and WOSCOPS sample sets combined by direct genotyping and by imputing genotypes.
“P” indicates the p-value, and “P(R)” (or “P.R.”) indicates the p-value random effect. Both of these are p-values corresponding to a statistical test of whether the combined synergy index is equal to one but use different assumptions to derive the p-value. “P” is calculated using a fixed effects model, and “P(R)” is calculated using a random effects model.
“OR” indicates the odds ratio (synergy index) calculated from a fixed effects model, and “OR(R)” (or “OR.R.”) indicates the odds ratio (synergy index) calculated from a random effects model.

[1] = rs10105871 allele C DOMINANT Imputed
[2] = rs10116807 allele A GENOTYPIC Imputed
[3] = rs11178575 allele C GENOTYPIC Imputed
[4] = rs11178575 allele C RECESSIVE Imputed
[5] = rs11178577 allele T GENOTYPIC Imputed
[6] = rs11178577 allele T RECESSIVE Imputed
[7] = rs11178583 allele A DOMINANT Imputed
[8] = rs11178589 allele T DOMINANT Imputed
[9] = rs11178594 allele C DOMINANT Imputed
[10] = rs11178602 allele T DOMINANT Imputed
[11] = rs11178648 allele T DOMINANT Imputed
[12] = rs11198877 allele T DOMINANT Imputed
[13] = rs11198942 allele T DOMINANT Imputed
[14] = rs11221075 allele A ADDITIVE Imputed
[15] = rs11242020 allele T DOMINANT Imputed
[16] = rs11242021 allele T DOMINANT Imputed
[17] = rs11242022 allele T DOMINANT Imputed
[18] = rs11242023 allele T DOMINANT Imputed
[19] = rs11576627 allele T ADDITIVE Imputed
[20] = rs11576627 allele T DOMINANT Imputed
[21] = rs11602189 allele A DOMINANT Imputed
[22] = rs11605163 allele A DOMINANT Imputed
[23] = rs11615214 allele G ADDITIVE Imputed
[24] = rs11615214 allele G GENOTYPIC Imputed
[25] = rs11642394 allele C DOMINANT Imputed
[26] = rs11644943 allele A ADDITIVE Imputed
[27] = rs11656608 allele T DOMINANT Imputed
[28] = rs11661309 allele A ADDITIVE Imputed
[29] = rs11661309 allele A DOMINANT Imputed
[30] = rs11666131 allele A ADDITIVE Imputed
[31] = rs11743355 allele C ADDITIVE Imputed
[32] = rs11743355 allele C DOMINANT Imputed
[33] = rs11746806 allele T ADDITIVE Imputed
[34] = rs11746806 allele T DOMINANT Imputed
[35] = rs11746959 allele T ADDITIVE Imputed
[36] = rs11746959 allele T DOMINANT Imputed
[37] = rs11749272 allele T DOMINANT Imputed
[38] = rs11901899 allele A DOMINANT Imputed
[39] = rs11926319 allele G ADDITIVE Imputed
[40] = rs11926319 allele G DOMINANT Imputed
[41] = rs11956952 allele C DOMINANT Imputed
[42] = rs12025826 allele G DOMINANT Imputed
[43] = rs12153185 allele T DOMINANT Imputed
[44] = rs12182651 allele T ADDITIVE Imputed
[45] = rs12182651 allele T DOMINANT Imputed
[46] = rs12193568 allele G DOMINANT Imputed
[47] = rs12264914 allele C DOMINANT Imputed
[48] = rs12307767 allele C DOMINANT Imputed
[49] = rs12407412 allele C ADDITIVE Imputed
[50] = rs12407412 allele C DOMINANT Imputed
[51] = rs12420184 allele G DOMINANT Imputed
[52] = rs12422750 allele A DOMINANT Imputed
[53] = rs12446951 allele A ADDITIVE Imputed
[54] = rs12446951 allele A DOMINANT Imputed
[55] = rs12457400 allele G DOMINANT Imputed
[56] = rs12521291 allele G ADDITIVE Imputed
[57] = rs12526849 allele T ADDITIVE Imputed
[58] = rs12526849 allele T GENOTYPIC Imputed
[59] = rs12543110 allele G DOMINANT Imputed
[60] = rs12678600 allele A DOMINANT Imputed
[61] = rs12719415 allele T DOMINANT Imputed
[62] = rs12831292 allele G DOMINANT Imputed

## CC[C@H](C)C(=O)O[C@H]1C[C@H](O)C=C2C=C[C@H](C)[C@H](CC[C@@H](O)C[C@@H](O)CC(=O)O)[C@H]21 [Pravastatin, pravastatin]
rs10067895 allele A DOMINANT Imputed
  OR(R): 0.5759
rs10088505 allele A vs G (ref)
  Meta-analysis OR: 1.61
rs10088524, allele A1 G (non-ref), A2 A (ref), endpoint/model not given
  Meta-analysis OR: 1.57
rs10103297, allele A1 A (non-ref), A2 G (ref), endpoint/model not given
  Meta-analysis OR: 2.03
[1]
  OR: 1.6092
  OR(R): 1.6092
[2]
  OR: 3.0952
  OR(R): 3.0952
rs10120126 allele G vs A (ref)
  Meta-analysis OR: 0.51
rs10189905 allele C vs A (ref)
  Meta-analysis OR: 0.52
rs10500736 allele G vs A (ref)
  Meta-analysis OR: 0.57
rs10517923 allele A vs G (ref)
  Meta-analysis OR: 1.61
rs10814422 allele G vs A (ref)
  Meta-analysis OR: 0.57
rs10849442 allele A vs G (ref)
  Meta-analysis OR: 0.57
rs10875941, allele A1 G (non-ref), A2 A (ref), endpoint/model not given
  Meta-analysis OR: 0.63
rs10973013 allele A vs G (ref)
  Meta-analysis OR: 0.55
rs11076320 allele C vs A (ref)
  Meta-analysis OR: 0.65
rs11082492 allele A vs C (ref)
  Meta-analysis OR: 1.55
[3]
  OR: 1.8735
  OR(R): 1.8735
[4]
  OR: 1.8848
  OR(R): 1.8848
[5]
  OR: 1.87
  OR(R): 1.87
[6]
  OR: 1.8884
  OR(R): 1.8884
[7]
  OR: 0.5918
  OR(R): 0.5918
[8]
  OR: 0.6108
  OR(R): 0.6108
[9]
  OR: 0.5951
  OR(R): 0.5951
[10]
  OR: 0.5942
  OR(R): 0.5942
[11]
  OR: 0.576
  OR(R): 0.576
[12]
  OR: 1.6068
  OR(R): 1.5927
[13]
  OR: 1.6276
  OR(R): 1.6227
[14]
  OR: 0.6561
  OR(R): 0.6561
[15]
  OR: 0.5675
  OR(R): 0.5675
[16]
  OR: 0.5753
  OR(R): 0.5753
[17]
  OR: 0.5805
  OR(R): 0.5805
[18]
  OR: 0.5807
  OR(R): 0.5807
[19]
  OR: 1.6268
  OR(R): 1.6268
[20]
  OR: 1.7055
  OR(R): 1.7055
[21]
  OR: 0.6007
  OR(R): 0.6007
[22]
  OR: 2.1075
  OR(R): 2.1075
[23]
  OR: 0.6853
  OR(R): 0.6853
[24]
  OR: 0.4648
  OR(R): 0.4738
[25]
  OR: 1.4572
  OR(R): 1.4572
[26]
  OR: 1.4247
  OR(R): 1.4247
[27]
  OR: 0.6695
  OR(R): 0.6695
[28]
  OR: 0.6163
  OR(R): 0.6163
[29]
  OR: 0.5852
  OR(R): 0.5852
[30]
  OR: 1.5364
  OR(R): 1.5364
[31]
  OR: 0.1796
  OR(R): 0.1796
[32]
  OR: 0.1817
  OR(R): 0.1817
[33]
  OR: 0.2206
  OR(R): 0.2206
[34]
  OR: 0.2253
  OR(R): 0.2253
[35]
  OR: 0.1976
  OR(R): 0.1976
[36]
  OR: 0.2007
  OR(R): 0.2007
[37]
  OR: 0.5734
  OR(R): 0.5734
[38]
  OR: 1.5824
  OR(R): 1.5824
rs11925875 allele A vs G (ref)
  Meta-analysis OR: 0.66
[39]
  OR: 0.4343
  OR(R): 0.4343
[40]
  OR: 0.4237
  OR(R): 0.4237
[41]
  OR: 0.6564
  OR(R): 0.6564
[42]
  OR: 1.5794
  OR(R): 1.5794
[43]
  OR: 0.5759
  OR(R): 0.5759
[44]
  OR: 2.1926
  OR(R): 2.1926
[45]
  OR: 2.4795
  OR(R): 2.4795
[46]
  OR: 1.7403
  OR(R): 1.8042
[47]
  OR: 0.6442
  OR(R): 0.6442
[48]
  OR: 0.6667
  OR(R): 0.6667
[49]
  OR: 1.6268
  OR(R): 1.6268
[50]
  OR: 1.7055
  OR(R): 1.7055
[51]
  OR: 0.5645
  OR(R): 0.5645
[52]
  OR: 0.6919
  OR(R): 0.6919
[53]
  OR: 2.3413
  OR(R): 2.3413
[54]
  OR: 2.3135
  OR(R): 2.3135
[55]
  OR: 0.5884
  OR(R): 0.5884
[56]
  OR: 0.6857
  OR(R): 0.6857
[57]
  OR: 1.4208
  OR(R): 1.4208
[58]
  OR: 2.0445
  OR(R): 2.0445
[59]
  OR: 1.6401
  OR(R): 1.6401
rs12556591 allele G vs A (ref)
  Meta-analysis OR: 0.59
rs12657484, allele A1 G (non-ref), A2 A (ref), endpoint/model not given
  Meta-analysis OR: 1.49
[60]
  OR: 0.6104
  OR(R): 0.6104
[61]
  OR: 0.5662
  OR(R): 0.5662
[62]
  OR: 0.5982
  OR(R): 0.5982
rs13279522 allele G vs A (ref)
  Meta-analysis OR: 0.62
rs13314266 allele G vs A (ref)
  Meta-analysis OR: 0.51
rs13318232 allele G vs A (ref)
  Meta-analysis OR: 0.52
rs16861467, allele A1 G (non-ref), A2 A (ref), endpoint/model not given
  Meta-analysis OR: 0.49
rs17076974 allele A vs G (ref)
  Meta-analysis OR: 1.40
rs17546598 allele A vs G (ref)
  Meta-analysis OR: 1.71
rs17706237 allele G vs A (ref)
  Meta-analysis OR: 1.69
rs17716275, allele A1 A (non-ref), A2 G (ref), endpoint/model not given
  Meta-analysis OR: 2.03
rs72746987 allele A vs G (ref)
  Meta-analysis OR: 0.40
